The text below walks through data of patent US20210323995A1, “ISOLITHOCHOLIC ACID OR ISOALLOLITHOCHOLIC ACID AND DEUTERATED DERIVATIVES THEREOF FOR PREVENTING AND TREATING CLOSTRIDIUM DIFFICILE-ASSOCIATED DISEASES” (PHENEX PHARMACEUTICALS AG, priority 2018, published 2021).

Data set [1] concerns C. diff. spore germination. Particulars: reported in WO2010/062369, Table 3, cited from earlier work.
Data set [2] has as its system Clostridium difficile (Clostridioides difficile), Mouse Strain VPI 10463 (ATCC 43255). In words: MIC on Clostridium difficile mouse strain VPI 10463. The class given is cell-based. Particulars: ATCC43255, 48 hours, presence/absence of growth, tested 0.015-250 μM. As to the method:
Determination of Minimal Inhibitory Concentrations (MICs) of Bile Acid Derivatives on Clostridium difficile (Clostridioides difficile), Mouse Strain VPI 10463 (ATCC 43255)
Concentrations (0.015-250 μM) of test compounds are prepared by serial two-fold dilutions in pre-reduced brain heart infusion (BHI) broth. To each well containing test article, approximately 5×10^5 CFU of bacteria are added and incubated for 48 hours in an anaerobic chamber at 37° C. Following incubation, the MIC of each test article is determined by presence/absence of bacterial growth in each well.

Data set [3] relates to C. diff. strain VPI 10463 (ATCC-43255) infection. Briefly: Recurrence model mouse of C. diff. infection. As to conditions: 30 mg/kg; comparison Example 3 against Example 1 (FIG. 3). The class given is in vivo, C57BL/6 female mice.
Procedure: The efficacy of compounds in suppressing recurrent C. diff. infection was assessed in C57BL/6 female mice. Mice were made vulnerable to C. diff. infection by administration of a cocktail of antibiotics (1% glucose, kanamycin (0.5 mg/mL), gentamicin (44 μg/mL), colistin (1062.5 U/mL), metronidazole (269 μg/mL), ciprofloxacin (156 μg/mL), ampicillin (100 μg/mL) and vancomycin (56 μg/mL)) in drinking water for a period of 9 days. 3 days prior to C. diff. infection, mice received a single dose of clindamycin (10 mg/kg) in a volume of 0.5 mL by oral gavage. After this antibiotic pre-treatment, mice received a challenge of approximately 4.5 log 10 viable spores of strain VPI 10463 (ATCC-43255) administered by oral gavage (day 0). After that mice received 50 mg/kg vancomycin from day 0 until day 4. Test articles (bile acid) and placebo were administered via oral gavage bid from day 5 through day 11. Efficacy of test articles was assessed by enumeration of survival of test animals over 15 days following C. diff, challenge and by comparison of mortality, disease severity scores and assessment of body weight against placebo treatment.
Data set [4] has as its system Clostridium difficile (Clostridioides difficile), Human Strain R20291, Ribotype RT027. In words: MIC on Clostridium difficile human strain R20291, ribotype RT027. The format is cell-based. As to conditions: 16 h incubation, OD600. The method, then: Determination of Minimal Inhibitory Concentrations (MICs) of Bile Acid Derivatives on Clostridium difficile (Clostridioides difficile), Human Strain R20291, Ribotype RT027, Reference DSMZ (DSM-27147)
All bacterial culturing steps and MIC experiments were performed under anoxic conditions (95% N2, 5% H2) and 37° C. in an incubator model 2002 that was placed in a Type B vinyl anaerobic chamber, both from Coy Laboratories Products. The strains were maintained as frozen stock cultures in Brain-Heart Infusion broth supplemented with […] and 1% (w/v) L-cysteine (BHIS) containing 40% (v/v) glycerine (Carl Roth GmbH, Cat. #3783.1) at −80° C. Brain-heart infusion broth (Sigma Aldrich, Cat. #53286) with the addition of with 5 g/L yeast extract (Carl Roth GmbH, Cat. #2363.5) was prepared according to the manufacturer's instructions. After heat sterilization, 1 g L-cysteine (Sigma Aldrich, Cat. #C7352) was added that was dissolved in 10 mL of distilled water (H2Odd) and filter sterilized. Medium was placed over night into the anaerobic chamber for degassing. For the MIC-assay cryo-preserved strains were streaked out on BBL™ Columbia CNA Agar with 5% Sheep Blood (BD™, Cat. #221352) and grown for 2-3 d. These plates were kept at rt in the anaerobic chamber for up to two weeks for starting fresh liquid cultures. […]

Data set [5] in a line: ALT plasma concentration of mice after 5 days administration. The format is in vivo. Particulars: 500 mg/kg for 5 days, mice (FIG. 1a, 1b); result in words.

Values after ≈ are worked out from the molar mass of the structure shown. Read-outs that look alike come from different tables or passages of the source.

Regarding `CC(=O)O[C@@H]1CC[C@@]2(C)[C@H](CC[C@@H]3[C@@H]2CC[C@]2(C)[C@@H]([C@H](C)CCC(=O)O)CC[C@@H]32)C1` [5β-cholanic acid 3α-ol acetate], the “effect on C. diff. spore germination (inhibition of germination)” value in data set [1] is “no effect”; in data set [1] (listed as 3-acetyl-LCA), “not present”.
For orientation: MIC means the least concentration at which growth counts as inhibited. Higher therefore signals weaker potency. Turning to `[2H]C1([2H])C[C@@]2(C)[C@H](CC[C@@H]3[C@@H]2CC[C@]2(C)[C@@H]([C@H](C)CCC(=O)O)CC[C@@H]32)C([2H])([2H])[C@H]1O` [Example 2, 2,2,4,4-d4-Isolithocholic Acid], the MIC in data set [2] fell in the range of 7.8 to 15.6 µM (≈ 2.97 to 5.94 µg/mL).
For `[2H]C1([2H])C[C@@]2(C)[C@H](CC[C@@H]3[C@@H]2CC[C@]2(C)[C@@H]([C@H](C)CCC(=O)O)CC[C@@H]32)C([2H])([2H])C1([2H])O` (stereo partly shown) [Example 3, 2,2,3,4,4-d5-Isolithocholic Acid], the “survival of the animals” value in data set [3] was 60%. This compound showed an MIC in data set [2] of 7.8 to 15.6 µM (≈ 2.98 to 5.95 µg/mL).
With `[2H][C@]1(O)CC[C@@]2(C)[C@H](CC[C@@H]3[C@@H]2CC[C@]2(C)[C@@H]([C@H](C)CCC(=O)O)CC[C@@H]32)C1` [Example 4, 3-d1-Isolithocholic Acid], in data set [2], the MIC was determined as 15.6 µM (≈ 5.89 µg/mL).
Turning to `C[C@H](CCC(=O)O)[C@H]1CC[C@H]2[C@@H]3CC[C@H]4C[C@@H](O)CC[C@]4(C)[C@H]3CC[C@]12C` [Example 5, 3β-Hydroxy-5α-cholan-24-oic Acid], the MIC stood at 3.9 µM (≈ 1.47 µg/mL) in data set [2] and 8 µM (≈ 3.01 µg/mL) in data set [4].
For `C[C@H](CCC(=O)O)[C@H]1CC[C@H]2[C@@H]3CC[C@@H]4C[C@H](O)CC[C@]4(C)[C@H]3CC[C@]12C` [LCA, lithocholic acid], the “ALT-elevation (ALT plasma concentration)” value in data set [5] is on record as “confirm this described liability of ALT-elevation”.
For `C[C@H](CCC(=O)O)[C@H]1CC[C@H]2[C@@H]3CC[C@@H]4C[C@@H](O)CC[C@]4(C)[C@H]3C[C@H](O)[C@]12C` [iso-DCA, reference compound], the MIC in data set [2] was > 250 µM.
